{"source": "patent US20020076434A1", "about": "“Liposomal retinoid therapy in hormone refractory prostate cancer” (Aronex Pharmaceuticals, Inc., priority 2000, published 2002)", "origin": "cited, not measured here", "key": {"HRPC [1]": {"system": "HRPC"}, "HRPC [2]": {"system": "HRPC", "details": "Kelly: 50 mg/m^2 every 8 hours for 8 weeks, 14 patients; Trump: days 1-14 every 22 days, 17 patients"}, "[3]": {"details": "one patient achieving CR, baseline PSA 25.0 ng/mL"}}, "data": [{"smiles": "CC1=C(/C=C/C(C)=C/C=C/C(C)=C/C(=O)O)C(C)(C)CCC1", "note": "[oral ATRA, all trans retinoic acid]", "values": [{"measurement": "Number of biological responses", "setting": "HRPC [1]; 26 HRPC patients, oral 45 mg/m^2 daily for 7 days, 7 days off, resumed Day 14", "result": 4}, {"measurement": "Maximum response duration", "setting": "HRPC [1]; [3]", "result": 3, "unit": "month"}, {"measurement": "Time serum PSA remained within normal limits after the last dose", "setting": "HRPC [1]; [3]", "result": 8, "unit": "weeks"}, {"measurement": "Tumor response", "setting": "HRPC [2]", "result": "little tumor response"}]}]}
